In assay [1] the test system is HCT-116. The experiment in a line: Cytotoxicity against human HCT-116 cells assessed as inhibition of cell growth incubated for 24 hrs by XTT assay. It counts as functional, cell-based. The following applies: HCT-116, 24 h.
Another assay relates to PANC-1. The experiment in a line: Cytotoxicity against human PANC-1 cells assessed as inhibition of cell growth incubated for 24 hrs by XTT assay. It is filed as functional, cell-based. To be noted: PANC-1, 24 h. In general terms: Formazan colour is commonly taken as a measure of viable cells.
Assay [2] concerns HCT-116. Description: Cytotoxicity against human HCT-116 cells assessed as cell growth inhibition incubated for 48 hrs by sulforhodamine B reagent assay. The following applies: HCT-116, 48 h. It counts as functional, cell-based. For orientation: In SRB staining, fixed cells bind dye roughly in proportion to their protein.
A further assay has as its system KM12. Description: Cytotoxicity against human KM12 cells assessed as cell growth inhibition incubated for 48 hrs by sulforhodamine B reagent assay. It is filed as functional, cell-based. The following applies: KM12, 48 h.
A further assay relates to DU-145. The experiment in a line: Cytotoxicity against human DU-145 cells assessed as cell growth inhibition incubated for 48 hrs by sulforhodamine B reagent assay. It is filed as functional, cell-based. To be noted: DU-145, 48 h.
The next assay concerns U-251. The experiment in a line: Cytotoxicity against human U-251 cells assessed as cell growth inhibition incubated for 48 hrs by sulforhodamine B reagent assay. It counts as functional, cell-based. To be noted: U-251, 48 h.
The subject of a further assay is 786-0. Description: Cytotoxicity against human 786-0 cells assessed as cell growth inhibition incubated for 48 hrs by sulforhodamine B reagent assay. It is filed as functional, cell-based. To be noted: 786-0, 48 h.
For the next assay, the system named is K562. Description: Cytotoxicity against human K562 cells assessed as cell growth inhibition incubated for 48 hrs by sulforhodamine B reagent assay. It is filed as functional, cell-based. The following applies: K562, 48 h.
A further assay has as its system MDA-MB-231. The experiment in a line: Cytotoxicity against human MDA-MB-231 cells assessed as cell growth inhibition incubated for 48 hrs by sulforhodamine B reagent assay. It counts as functional, cell-based. The following applies: MDA-MB-231, 48 h.
For another assay, the system named is NCI-H322M. The experiment in a line: Cytotoxicity against human NCI-H322M cells assessed as cell growth inhibition incubated for 48 hrs by sulforhodamine B reagent assay. It counts as functional, cell-based.
The subject of another assay is EKVX. Description: Cytotoxicity against human EKVX cells assessed as cell growth inhibition incubated for 48 hrs by sulforhodamine B reagent assay. It counts as functional, cell-based.
A further assay concerns RXF 393. Description: Cytotoxicity against human RXF 393 cells assessed as cell growth inhibition incubated for 48 hrs by sulforhodamine B reagent assay. It counts as functional, cell-based. The following applies: RXF 393, 48 h.
Another assay concerns SK-MEL-5. The experiment in a line: Cytotoxicity against human SK-MEL-5 cells assessed as cell growth inhibition incubated for 48 hrs by sulforhodamine B reagent assay. It counts as functional, cell-based. To be noted: SK-MEL-5, 48 h.
A further assay concerns SW-620. The experiment in a line: Cytotoxicity against human SW620 cells assessed as cell growth inhibition incubated for 48 hrs by sulforhodamine B reagent assay. It counts as functional, cell-based. To be noted: SW-620, 48 h.
The subject of the next assay is T47D. The experiment in a line: Cytotoxicity against human T47D cells assessed as cell growth inhibition incubated for 48 hrs by sulforhodamine B reagent assay. It counts as functional, cell-based.
The next assay concerns SNB-75. The experiment in a line: Cytotoxicity against human SNB-75 cells assessed as cell growth inhibition incubated for 48 hrs by sulforhodamine B reagent assay. It counts as functional, cell-based. The following applies: SNB-75, 48 h.
The next assay has as its system SF-539. The experiment in a line: Cytotoxicity against human SF-539 cells assessed as cell growth inhibition incubated for 48 hrs by sulforhodamine B reagent assay. It counts as functional, cell-based. To be noted: SF-539, 48 h.
The subject of assay [3] is MCF7. The experiment in a line: Cytotoxicity against human MCF7 cells assessed as cell growth inhibition incubated for 48 hrs by sulforhodamine B reagent assay. It is filed as functional, cell-based. To be noted: MCF7, 48 h.
The next assay deals with Hs-578T. The experiment in a line: Cytotoxicity against human Hs-578T cells assessed as cell growth inhibition incubated for 48 hrs by sulforhodamine B reagent assay. It is filed as functional, cell-based.
Assay [4] has as its system SK-MEL-28. The experiment in a line: Cytotoxicity against human SK-MEL-28 cells assessed as cell growth inhibition incubated for 48 hrs by sulforhodamine B reagent assay. It counts as functional, cell-based. To be noted: SK-MEL-28, 48 h.
A further assay has as its system BT-549. The experiment in a line: Cytotoxicity against human BT-549 cells assessed as cell growth inhibition incubated for 48 hrs by sulforhodamine B reagent assay. It counts as functional, cell-based. The following applies: BT-549, 48 h.
Another assay concerns Malme-3M. Description: Cytotoxicity against human Malme-3M cells assessed as cell growth inhibition incubated for 48 hrs by sulforhodamine B reagent assay. It is filed as functional, cell-based.
The next assay relates to OVCAR-4. Description: Cytotoxicity against human OVCAR-4 cells assessed as cell growth inhibition incubated for 48 hrs by sulforhodamine B reagent assay. It counts as functional, cell-based. To be noted: OVCAR-4, 48 h.
The test system of assay [5] is A549. The experiment in a line: Cytotoxicity against human A549 cells assessed as inhibition of cell growth incubated for 48 hrs by MTT spectrophotometric assay. The following applies: A549, 48 h. It counts as functional, cell-based.
The subject of assay [6] is Calf thymus DNA. The experiment in a line: Binding affinity to calf thymus DNA assessed as binding constant by UV-Vis spectroscopic analysis. It is filed as nucleic-acid assay. The following applies: Bos taurus.
Assay [7] relates to HeLa. Description: Cytotoxicity against human HeLa cells assessed as inhibition of cell growth incubated for 48 hrs by MTT spectrophotometric assay. It is filed as functional, cell-based.
Another assay concerns SGC-7901. The experiment in a line: Cytotoxicity against human SGC-7901 cells assessed as inhibition of cell growth incubated for 48 hrs by MTT spectrophotometric assay. It counts as functional, cell-based. To be noted: SGC-7901, 48 h.
Assay [8] relates to Calf thymus DNA. Description: Binding affinity to calf thymus DNA assessed as DNA intercalation by measuring change in melting temperature by thermal denaturation assay. It counts as nucleic-acid assay. To be noted: Bos taurus.
Assay [9] deals with A549. The experiment in a line: Antiproliferative activity against human A549 cells assessed as inhibition of cell growth. It is filed as functional, cell-based.
The subject of the next assay is HL-60. Description: Antiproliferative activity against human HL-60 cells assessed as inhibition of cell growth. It is filed as functional, cell-based.
The test system of assay [10] is HeLa. Description: Antiproliferative activity against human HeLa cells assessed as inhibition of cell growth. It is filed as functional, cell-based.
The subject of the next assay is HT-29. Description: Antiproliferative activity against human HT-29 cells assessed as inhibition of cell proliferation. It is filed as functional, cell-based.
The test system of assay [11] is Calf thymus DNA. Description: Binding affinity to calf thymus DNA assessed as DNA intercalation by measuring change in melting temperature by thermal denaturation assay based UV-Vis spectrophotometric analysis. It is filed as nucleic-acid assay. To be noted: Bos taurus.
In assay [12] the test system is MCF7. Description: Antiproliferative activity against human MCF7 cells assessed as inhibition of cell proliferation. It counts as functional, cell-based.
In assay [13] the test system is Calf thymus DNA. Description: Binding affinity to calf thymus DNA assessed as binding constant incubated for 30 mins by fluorescence based EtBr-displacement assay. It counts as nucleic-acid assay. To be noted: Bos taurus.
A short description of assay [14]: Antioxidant activity assessed as hydrogen peroxide free radical scavenging activity incubated for 10 mins. It is filed as functional.
A short description of assay [15]: Antioxidant activity assessed as DPPH radical scavenging activity incubated for 30 mins by UV-Vis spectrophotometer assay. It counts as functional. A general note: The DPPH test is a chemical assay of radical scavenging.
For assay [16], the system named is SK-MEL-28. Description: Growth inhibition against human SK-MEL-28 cells at 10 uM incubated for 48 hrs by sulforhodamine B reagent assay. It counts as functional. The following applies: read-out: GI.
A further assay relates to SMMC-7721. The experiment in a line: Antiproliferative activity against human SMMC-7721 cells assessed as inhibition of cell proliferation incubated for 48 hrs by MTT assay. The following applies: SMMC-7721, 48 h. It is filed as functional, cell-based.
Assay [17] has as its system MCF7. Description: Antiproliferative activity against human MCF7 cells assessed as inhibition of cell proliferation incubated for 48 hrs by MTT assay. It is filed as functional, cell-based. To be noted: MCF7, 48 h.
Assay [18] relates to HeLa. Description: Antiproliferative activity against human HeLa cells assessed as inhibition of cell proliferation incubated for 48 hrs by MTT assay. It counts as functional, cell-based.
Assay [19] deals with MCF7. The experiment in a line: Cytotoxicity against human MCF7 cells assessed as inhibition of cell growth incubated for 24 hrs by CCK-8 assay. It is filed as functional, cell-based. The following applies: MCF7, 24 h.

Converted amounts (≈) assume the structure as drawn.

Take `CN(C)CCN1C(=O)c2cccc3c(N(C)CCCl)ccc(c23)C1=O`: the IC50 in the assay with HCT-116 [1] and in the assay with PANC-1 was 1900 nM each time.
In the case of `CN1CCN(c2ccc3nc(-c4ccc(OCCCN5C(=O)c6cccc7cccc(c67)C5=O)cc4)[nH]c3c2)CC1`, the IC50 in the assay on HCT-116 [2], in the assay on KM12, in the assay with DU-145, with U-251, with 786-0 and in the assay with K562 was 110 nM in each case. Besides, the IC50 in the assay on MDA-MB-231, in the assay with NCI-H322M, in the assay with EKVX, in the assay on RXF 393, with SK-MEL-5 and with SW-620 was 110 nM throughout. Further, the IC50 with T47D, in the assay with SNB-75, in the assay on SF-539, in the assay with MCF7 [3], with Hs-578T and in the assay with SK-MEL-28 [4] was 110 nM each time. The IC50 with BT-549, in the assay with Malme-3M and in the assay on OVCAR-4 was 110 nM in each case.
For the molecule `CN(C)CCN1C(=O)c2cccc3c(N4CCN(CCCO)CC4)ccc(c23)C1=O`, the IC50 with A549 [5], in the assay on HeLa [7] and with SGC-7901 was below 7000 nM each time. Further, the Kb in the assay on Calf thymus DNA [6] is 0.47 10^5/M.
For the molecule `CN(C)CCN1C(=O)c2cccc3c(NCCNCCNCCN)ccc(c23)C1=O`, the ΔTm in the assay on Calf thymus DNA [8] is 11.8 °C. Further, the half-maximal inhibitory concentration (IC50) in the assay on A549 [9], in the assay with HL-60 and in the assay with HeLa [10] was 13100 nM each time.
Consider `C[n+]1ccn(CCCN2C(=O)c3cccc4cccc(c34)C2=O)c1`, for which the IC50 in the assay on HT-29 and with MCF7 [12] was 4600 nM throughout. In addition, the ΔTm with Calf thymus DNA [11] stood at 3 °C.
With `CN(C)CCN1C(=O)c2cccc3c(NCCNCCN)ccc(c23)C1=O`, the ΔTm in the assay on Calf thymus DNA [8] worked out at 11.8 °C. For the same molecule, the IC50 in the assay with A549 [9] amounted to 3160 nM; in the assay on HL-60 it was 13100 nM; with HeLa [10], 13100 nM.
On to `CCOc1cc(/C=N/N2C(=O)c3cccc4cccc(c34)C2=O)ccc1O`, for which the Kb in the assay with Calf thymus DNA [13] is 3.33 10^4/M. Moreover, the IC50 is 1060 µg/mL (≈ 2.94 mM) in [14] and 1280 µg/mL (≈ 3.55 mM) in [15].
Turning to `O=C1c2cccc3cccc(c23)C(=O)N1CCCCCN1CCN(CCCCCOc2ccc(-c3nc4ccc(N5CCOCC5)cc4[nH]3)cc2)CC1`, in the assay on SK-MEL-28 [16], the inhibition of growth at 10 µM came out at 50%.
For the molecule `CN(C)CCN1C(=O)c2cccc3c(N4CCN(CCO)CC4)ccc(c23)C1=O`, the IC50 with A549 [5], with HeLa [7] and in the assay with SGC-7901 was below 7000 nM throughout. Besides, in the assay with Calf thymus DNA [6], the Kb is 0.47 10^5/M.
Regarding `COc1cccc(/C=N/N2C(=O)c3cccc4cccc(c34)C2=O)c1O`, the Kb in the assay with Calf thymus DNA [13] is 2.25 10^4/M. The IC50 in assay [14] came to 1170 µg/mL (≈ 3.38 mM); in assay [15], 1430 µg/mL (≈ 4.13 mM).
In the case of `CN(C)CCN1C(=O)c2cccc3cc(-n4ccnn4)cc(c23)C1=O`, the Kb in the assay on Calf thymus DNA [6] was 5.1 10^5/M. The IC50 in the assay on SMMC-7721, in the assay on MCF7 [17] and with HeLa [18] was 300 nM in each case.
Regarding `CN(C)CCCN1C(=O)c2cccc3c(NCCNC(=N)N)ccc(c23)C1=O`, in the assay with MCF7 [19], the IC50 was determined as 10400 nM.

By IC50 is commonly meant the point on the concentration scale where inhibition reaches its midpoint. In general, ΔTm refers to the change in melting temperature against a reference sample.

Values taken from ChEMBL document CHEMBL5244223, “l,8-Naphthalimide based DNA intercalators and anticancer agents. A systematic review from 2007 to 2017” (Eur J Med Chem, 2018).
